# Data reported in PMC8267945, “Plumbagin, a Natural Product with Potent Anticancer Activities, Binds to and Inhibits Dihydroorotase, a Key Enzyme in Pyrimidine Biosynthesis” (International Journal of Molecular Sciences, 2021).
# Experiments:
# ScDHOase–T106A = target: T1, ScDHOase–T106A (Saccharomyces cerevisiae, UniProt P20051, T106A); assay: fluorescence quenching binding assay
# T1 construct: made in house; host or cells: E. coli BL21(DE3)
# Protocol: (§1) Figure 7 The data used to calculate the Kd values of various DHOases. (A) The fluorescence emission spectra of ScDHOase with PLU of different concentrations (0–200 μM; 0, 10, 20, 50, 75, 100, 125, 150, 175, and 200 μM). The decrease in intrinsic fluorescence of protein was measured at 324 nm upon excitation at 280 nm with a spectrofluorometer. […] (B) The fluorescence emission spectra of huDHOase with PLU of different concentrations (0–200 μM). (C) The fluorescence emission spectra of StDHOase with PLU of different concentrations. (D) The fluorescence emission spectra of ScDHOase–R18A with PLU of different concentrations. (E) The fluorescence emission spectra of ScDHOase–T106A with PLU of different concentrations. […] (F) An aliquot amount of PLU was added to the enzyme solution to determine the Kd. The Kd was obtained by the following equation: ΔF = ΔFmax − Kd(ΔF/[PLU]). Data points are an average of 2–3 determinations within a 10% error.
# (§2) The decrease in the intrinsic fluorescence of DHOase was measured with a spectrofluorometer (Hitachi F-2700; Hitachi High-Technologies, Japan). The Kd was obtained using the following equation: ΔF = ΔFmax − Kd(ΔF/[PLU]).
# (§3) The Kd value of the purified DHOase was determined using the fluorescence quenching method as previously described for DHOase, DHPase, and DnaB helicase. Briefly, an aliquot of the compound was added into the solution containing DHOase (1 μM) and 50 mM HEPES at pH 7.0. The decrease in the intrinsic fluorescence of DHOase was measured at 324 nm upon excitation at 280 nm and 25 °C with a spectrofluorometer (Hitachi F-2700; Hitachi High-Technologies, Japan). The Kd was obtained using the following equation: ΔF = ΔFmax − Kd(ΔF/[PLU]).
# ScDHOase–R18A = target: T2, ScDHOase–R18A (Saccharomyces cerevisiae, UniProt P20051, R18A); assay: fluorescence quenching binding assay
# T2 construct: made in house; host or cells: E. coli BL21(DE3)
# Protocol: as §1, §2, §3
# ScDHOase = target: T3, ScDHOase (Saccharomyces cerevisiae, UniProt P20051); assay: fluorescence quenching binding assay
# T3 construct: made in house; host or cells: E. coli BL21(DE3)
# Protocol: as §1, §2, §3
# huDHOase [1] = target: T4, huDHOase (Homo sapiens, UniProt P27708); assay: fluorescence quenching binding assay
# T4 construct: huDHOase1456-1846-NdeI-N; made in house; host or cells: E. coli BL21(DE3)
# T4 sequence (P27708 1456-1846): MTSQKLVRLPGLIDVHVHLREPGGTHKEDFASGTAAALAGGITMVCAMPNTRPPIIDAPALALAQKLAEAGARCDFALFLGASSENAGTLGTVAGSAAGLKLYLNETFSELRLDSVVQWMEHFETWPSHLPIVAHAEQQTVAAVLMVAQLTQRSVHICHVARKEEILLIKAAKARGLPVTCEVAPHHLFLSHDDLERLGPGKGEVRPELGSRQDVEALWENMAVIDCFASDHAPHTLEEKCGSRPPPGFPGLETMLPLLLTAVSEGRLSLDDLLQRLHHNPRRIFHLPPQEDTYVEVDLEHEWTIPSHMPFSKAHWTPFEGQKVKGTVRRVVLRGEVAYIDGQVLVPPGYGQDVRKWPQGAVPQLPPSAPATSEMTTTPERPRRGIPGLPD
# Protocol: as §1, §2, §3
# StDHOase = target: T5, StDHOase (Salmonella typhimurium, UniProt P06204); assay: rapid spectrophotometric DHOase enzyme assay (hydrolysis of DHO); format: biochemical, Salmonella enterica serovar Typhimurium LT2; settings: PLU 200 μM
# T5 construct: made in house; host or cells: E. coli BL21(DE3)
# Protocol: (§4) A rapid spectrophotometric assay was used to determine the activity of DHOase. Briefly, the hydrolysis of DHO was measured at 25 °C as the decrease in absorbance at 230 nm. The purified DHOase was added to a 2 mL solution containing 0.5 mM DHO and 100 mM Tris–HCl at pH 8.0 to start the reaction. The extinction coefficient of DHO was 0.92 mM^−1·cm^−1 at 230 nm. The hydrolysis of DHO was monitored using a UV/Vis spectrophotometer (Hitachi U 3300; Hitachi High-Technologies, Tokyo, Japan). A unit of activity was defined as the amount of enzyme catalyzing the hydrolysis of 1 μmol DHO/min, and the specific activity was expressed in terms of units of activity per mg of enzyme. The kinetic parameters Km and Vmax were determined from a nonlinear plot by fitting the hydrolyzing rate from individual experiments to the Michaelis–Menten equation (Enzyme Kinetics module of Sigma-Plot; Systat Software, Chicago, IL, USA).
# tumor growth = settings: cited from earlier work
# huDHOase [2] = target: T4, huDHOase; assay: rapid spectrophotometric DHOase enzyme assay (hydrolysis of DHO); format: biochemical; settings: 200 μM compound in the standard assay
# Protocol: as §4, with “The extinction coefficient of DHO was 0.92 mM^−1·cm^−1 at 230 nm.” left out
# T2 sequence (P20051 whole entry R18A): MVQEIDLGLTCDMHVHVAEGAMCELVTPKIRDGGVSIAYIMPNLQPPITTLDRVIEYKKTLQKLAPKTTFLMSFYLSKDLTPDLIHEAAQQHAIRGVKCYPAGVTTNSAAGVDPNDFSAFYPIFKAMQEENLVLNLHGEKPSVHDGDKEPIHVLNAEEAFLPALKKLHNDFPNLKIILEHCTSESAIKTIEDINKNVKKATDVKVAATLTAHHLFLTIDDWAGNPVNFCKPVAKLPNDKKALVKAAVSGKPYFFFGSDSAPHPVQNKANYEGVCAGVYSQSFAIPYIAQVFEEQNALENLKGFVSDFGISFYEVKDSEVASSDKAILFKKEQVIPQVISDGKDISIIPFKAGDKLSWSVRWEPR
# T3 sequence (P20051 whole entry): as the sequence (P20051 whole entry R18A) above, with A18R counted along it
# T1 sequence (P20051 whole entry T106A): as the sequence (P20051 whole entry R18A) above, with A18R, T106A counted along it
# T5 sequence (P06204 whole entry): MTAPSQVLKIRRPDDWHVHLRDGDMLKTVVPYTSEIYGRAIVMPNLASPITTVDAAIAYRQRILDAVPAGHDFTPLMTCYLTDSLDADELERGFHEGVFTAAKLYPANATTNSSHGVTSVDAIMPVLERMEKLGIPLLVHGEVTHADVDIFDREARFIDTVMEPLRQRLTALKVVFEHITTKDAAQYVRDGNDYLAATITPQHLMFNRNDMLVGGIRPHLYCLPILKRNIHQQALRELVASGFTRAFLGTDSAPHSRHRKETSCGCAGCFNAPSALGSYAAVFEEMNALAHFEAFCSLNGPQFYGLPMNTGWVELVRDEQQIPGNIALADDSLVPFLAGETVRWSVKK
structure (smiles),measurement,setting,value
"CC1=CC(=O)c2c(O)cccc2C1=O [PLU, plumbagin]",Kd,ScDHOase–T106A,70.8 ± 2.6 µM
same,quenching of ScDHOase–T106A,ScDHOase–T106A; PLU 0–200 μM,90.0%
same,λem shift of ScDHOase–T106A,ScDHOase–T106A; PLU 0–200 μM,6.5 nm
same,λmax of ScDHOase–T106A emission,ScDHOase–T106A; PLU 0–200 μM,from 328 to 321.5
same,Kd,ScDHOase–R18A,181 ± 5.9 µM
same,quenching of ScDHOase–R18A,ScDHOase–R18A; PLU 0–200 μM,75.1%
same,λem shift of ScDHOase–R18A,ScDHOase–R18A; PLU 0–200 μM,4.0 nm
same,λmax of ScDHOase–R18A emission,ScDHOase–R18A; PLU 0–200 μM,from 324.5 to 320.5
same,Kd,ScDHOase,64.8 ± 1.6 µM
same,quenching of the intrinsic fluorescence of ScDHOase,"ScDHOase; 200 μM compound, 324 nm, excitation 280 nm",87.7%
same,λmax of ScDHOase emission,ScDHOase; PLU 0–200 μM,from 324 to 317.5
same,λem shift of ScDHOase,"ScDHOase; PLU 0–200 μM, blue shift",6.5 nm
same,quenching of huDHOase,huDHOase [1]; PLU 0–200 μM,75.6%
same,λem shift of huDHOase,huDHOase [1]; PLU 0–200 μM,1.5 nm
same,λmax of huDHOase emission,huDHOase [1]; PLU 0–200 μM,from 340 to 338.5
same,Kd,huDHOase [1]; fluorescence quenching titration curve,151 ± 4.1 µM
same,decrease of the activity of StDHOase,StDHOase,71%
same,tumor growth in PLU-treated mice,tumor growth; animal models,significant reduction in tumor growth
same,side effects in PLU-treated mice,"tumor growth; mouse, in vivo",no side effects
same,decrease of the activity of huDHOase,huDHOase [2],30%
